Results taken from paper PMC4401630 (Clinical cancer research : an official journal of the …, 2015).
Several values for one entry are separate records, joined by “and”; a condition that tells them apart may be missing. Identical values can stand only once.

How the values were obtained:
BCL2L-11 gene = assay: Gene expression profiling by RNA-Seq, baseline vs post-treatment tumor; type: in vivo, human; details: responder with sarcomatoid NSCLC, 10mg everolimus
[1] = Everolimus pharmacokinetic analysis in whole blood; details: for Tmax: NSCLC patients
[2] = test system: phospho-4E-BP1 Thr37/46 (p4E-BP1); assay: Immunohistochemistry of paired tumor tissues; type: in vivo, human; details: mean (±SD)
[3] = test system: phospho-Akt Ser473 (pAKT); assay: Immunohistochemistry of tumor tissues; type: in vivo, human
Bim = assay: Immunohistochemistry of tumor tissues; details: for BIM expression immunoscore in post-treatment samples: control 48.6
[4] = test system: phospho-eIF4E Ser209 (pe1f4e); assay: Immunohistochemistry of paired tumor tissues; type: in vivo, human; details: mean (±SD)
p70S6K = assay: Immunohistochemistry of paired tumor tissues; type: in vivo, human; details: mean (±SD)
pS6/S6 = assay: Immunohistochemistry of paired tumor tissues; type: in vivo, human; details: mean (±SD)
S6 = assay: Immunohistochemistry of paired tumor tissues; type: in vivo, human; details: mean (±SD)
[5] = test system: resectable non-small cell lung cancer (NSCLC); assay: Metabolic response on paired 18F-FDG PET/CT; type: in vivo, human; details: for Change in metabolic activity (SUVmax): up to 28 days, control 29.0%; for Change in metabolic activity (SUVmax) / Mean reduction in SUVmax (percent change of initial SUVmax): p=0.014; for Mean reduction in SUVmax (percent change of initial SUVmax): control mean increase of 29%
[6] = test system: phospho-S6 Ser235/236 (pS6); assay: Immunohistochemistry of paired tumor tissues; type: in vivo, human; details: mean (±SD)
[7] = test system: phospho-mTOR Ser2448 (pMTOR); assay: Immunohistochemistry of paired tumor tissues; type: in vivo, human; details: mean (±SD)
[8] = Safety: treatment-emergent adverse events; type: in vivo, human
[9] = test system: resectable non-small cell lung cancer (NSCLC); assay: Anatomic response, tumor size; type: in vivo, human
[10] = human, whole blood, oral, 10 mg
[11] = dose of everolimus 10, mean (±SD)
[12] = dose of everolimus 5, listed as Everolimus
[13] = dose of everolimus 10, listed as Everolimus

With CO[C@H]1C[C@@H]2CC[C@@H](C)[C@@](O)(O2)C(=O)C(=O)N2CCCC[C@H]2C(=O)O[C@H]([C@H](C)C[C@@H]2CC[C@@H](OCCO)[C@H](OC)C2)CC(=O)[C@H](C)/C=C(\C)[C@@H](O)[C@@H](OC)C(=O)[C@H](C)C[C@H](C)/C=C/C=C/C=C/1C [everolimus] the “Increase in BCL2L-11 gene (BIM) expression, post-treatment vs baseline sample” value (BCL2L-11 gene) was 6 fold, the Tmax ([1]; 5 mg daily (n=12), whole blood) was 2 (1 – 2) hr and the “Day 21 Cmax” value ([1]; 10 mg daily (n=7), whole blood) was 51.5 ± 9.9 ng/mL. The Tmax ([1]; 10 mg daily (n=7), whole blood) was 2 (1 – 2) hr, the Accumulation ([1]; at either dose level (5mg, 10mg), days 8 and 21 vs day 1) was “no significant accumulation” and the concentration at 8 day ([1]; human, whole blood, oral, 5 mg) was 6.3 ± 2.9 ng/mL. The concentration at 21 day ([1]; human, whole blood, oral, 5 mg) was 5.7 ± 2.3 ng/mL, the half-life ([1]; human, whole blood, oral, 5 mg) was 26.5 h and the Cmax ([1]; human, whole blood, oral, 5 mg, Day 1 Cmax, 5 mg daily (n=12), whole blood) was 29.2 ± 9.9 ng/mL. It also gave a Cmax ([1]; human, whole blood, oral, 5 mg, Day 8 Cmax, 5 mg daily (n=12), whole blood) of 42.1 ± 17.2 ng/mL, an AUC(0-t) ([1]; human, whole blood, oral, 5 mg, Day 21 AUC0-24, 5 mg daily (n=12), whole blood) of 205 ± 87.4 ng·h/mL and a concentration at 8 day [1, 10] of 17.8 ± 7.6 ng/mL. For the same compound, the concentration at 21 day [1, 10] was 13.7 ± 9.2 ng/mL, the AUC(0-t) ([1]; human, whole blood, oral, 10 mg, Day 8 AUC0-24, 10 mg daily (n=7), whole blood) was 579 ± 186 ng·h/mL and the AUC(0-t) ([1]; human, whole blood, oral, 10 mg, Day 21 AUC0-24, 10 mg daily (n=7), whole blood) was 506 ± 208 ng·h/mL. For the same compound, the “p4E-BP1 percent change in immunoscore, post-treatment relative to baseline” value ([2]; dose of everolimus 5) was 150 (±NA) %, the “p4E-BP1 percent change in immunoscore, post-treatment relative to baseline” value ([2]; dose of everolimus 10) was −78.75 (± 14.36) % and the “Unmatched mean immunoscore, nuclear pAKT staining, post-treatment” value ([3]; 5 mg cohort, baseline 0.3) was 15. For the same compound, the “Unmatched mean immunoscore, cytoplasmic pAKT staining, post-treatment” value ([3]; 5 mg cohort, baseline 13.1) was 47.5, the “Unmatched mean immunoscore, nuclear pAKT staining, post-treatment” value ([3]; 10 mg cohort, baseline 0.01) was 4.4 and the “Unmatched mean immunoscore, cytoplasmic pAKT staining, post-treatment” value ([3]; 10 mg cohort, baseline 0.42) was 2.34. The “PAKT Nuclear percent change in immunoscore, post-treatment relative to baseline” value [3, 11] was 0 (± 0) %, the “BIM expression immunoscore in post-treatment samples” value (Bim; 5mg everolimus) was 84.3 and the “BIM expression immunoscore in post-treatment samples” value (Bim; 10mg everolimus) was 80.5. The “Bim percent change in immunoscore, post-treatment relative to baseline” value (Bim; [11]) was −21.76 (± 60.07) %, the “BIM expression immunoscore, treated compared to control patients” value (Bim; post-treatment samples, treated patients vs control) was about 2 fold and the “pe1f4e percent change in immunoscore, post-treatment relative to baseline” value ([4]; dose of everolimus 5) was 2.78 (± 5.56) %. For the same compound, the “pe1f4e percent change in immunoscore, post-treatment relative to baseline” value ([4]; dose of everolimus 10) was −27.13 (± 42.17) %, the “p70s6k percent change in immunoscore, post-treatment relative to baseline” value (p70S6K; dose of everolimus 5) was 137.14 (± 442.07) % and the “p70s6k percent change in immunoscore, post-treatment relative to baseline” value (p70S6K; dose of everolimus 10) was −78.62 (± 22.79) %. For the same compound, the “pS6/S6 percent change, post-treatment relative to baseline” value (pS6/S6; dose of everolimus 5) was −100 (±NA) %, the “pS6/S6 percent change, post-treatment relative to baseline” value (pS6/S6; dose of everolimus 10) was 128.57 (± 219.26) % and the “S6 percent change in immunoscore, post-treatment relative to baseline” value (S6; dose of everolimus 5) was −13.7%. The “S6 percent change in immunoscore, post-treatment relative to baseline” value (S6; [12]) was −13.69 (± 144.05) %, the “S6 percent change in immunoscore, post-treatment relative to baseline” value (S6; dose of everolimus 10) was −77.0% and −77.03% and the “S6 percent change in immunoscore, post-treatment relative to baseline” value (S6; [13]) was −77.03 (± 16.02) %. The “Change in metabolic activity (SUVmax)” value ([5]; 5mg cohort) was −21%, the “Partial metabolic response (PMR) rate, PERCIST” value ([5]; 5mg everolimus group) was 36% and the “Stable metabolic disease (SMD) rate, PERCIST” value ([5]; 5mg everolimus group) was 64%. The “Change in metabolic activity (SUVmax)” value ([5]; 10mg cohort) was −24%, the “Partial metabolic response (PMR) rate, PERCIST” value ([5]; 10mg everolimus group) was 50% and the “Stable metabolic disease (SMD) rate, PERCIST” value ([5]; 10mg everolimus group) was 50%. For the same compound, the “Reduction in mean metabolic activity, RAS mutant tumors” value ([5]; RAS mutant tumors treated with everolimus (10mg), control 88% increase, p=0.218) was 30%, the “Mean reduction in SUVmax (percent change of initial SUVmax)” value ([5]; everolimus 5mg) was 21% and the “Mean reduction in SUVmax (percent change of initial SUVmax)” value ([5]; everolimus 10mg) was 24%. The “Reduction in metabolic activity, non-RAS mutant tumors” value ([5]; everolimus (10mg) group, control 12% increase, p=0.039) was 21%, the “Reduction in SUVmax, single patient (near complete metabolic response)” value ([5]; one patient, sarcomatoid NSCLC, 10mg everolimus for 3 weeks) was 74% and the “pS6 percent change in immunoscore, post-treatment relative to baseline” value ([6]; dose of everolimus 5) was −61.57%. For the same compound, the “pS6 percent change in immunoscore, post-treatment relative to baseline” value [6, 12] was −61.57 (± 35.8) %, the “pS6 percent change in immunoscore, post-treatment relative to baseline” value ([6]; dose of everolimus 10) was −47.21% and the “pS6 percent change in immunoscore, post-treatment relative to baseline” value [6, 13] was −47.21 (± 44.96) %. The “pMTOR percent change in immunoscore, post-treatment relative to baseline” value ([7]; dose of everolimus 5) was 30 (± 153.95) %, the “pMTOR percent change in immunoscore, post-treatment relative to baseline” value ([7]; dose of everolimus 10) was −63.82 (± 51.3) % and the “MRSA Bacteremia, Grade 3” value ([8]; CTCAE version 3, patients treated with everolimus (5 or 10 mg daily)) was 1. For the same compound, the “Median length of hospital stay (LOS) after resection” value ([8]; in vivo) was 5 days, the “Range of length of hospital stay (LOS) after resection” value ([8]; in vivo) was 3 to 43 days and the “Patients achieving SD (RECIST)” value ([9]; 5mg everolimus) was 82%. The “Patients with best response of PD (RECIST)” value ([9]; 5mg everolimus) was 18%, the “Change in tumor size” value ([9]; 10mg cohort, control 10.1%, p=0.047) was −11.6% and the “Patients meeting RECIST criteria for partial response” value ([9]; 10mg everolimus group) was 9%. The “Patients with SD (RECIST)” value ([9]; 10mg everolimus group) was 91% and the “Tumor shrinkage in partial response” value ([9]; 10mg everolimus group, partial response) was 30%.
